Experimental data reported in patent publication US6388105B1, “Benzofuran, indole or benzothiophene 2,4-pentadienoic acid derivatives having selective activity for retinoid X (RXR) receptors” (Allergan Sales, Inc., priority 2001, dated 2002).

Key:
RXRα [1] = target: T1, RXRα (Homo sapiens, UniProt P19793); experiment: ligand binding assay, RXRα; settings: read-out: Kd (nM) RXR α
T1 construct: expressed in transfected cells
T1 sequence (P19793 1-462): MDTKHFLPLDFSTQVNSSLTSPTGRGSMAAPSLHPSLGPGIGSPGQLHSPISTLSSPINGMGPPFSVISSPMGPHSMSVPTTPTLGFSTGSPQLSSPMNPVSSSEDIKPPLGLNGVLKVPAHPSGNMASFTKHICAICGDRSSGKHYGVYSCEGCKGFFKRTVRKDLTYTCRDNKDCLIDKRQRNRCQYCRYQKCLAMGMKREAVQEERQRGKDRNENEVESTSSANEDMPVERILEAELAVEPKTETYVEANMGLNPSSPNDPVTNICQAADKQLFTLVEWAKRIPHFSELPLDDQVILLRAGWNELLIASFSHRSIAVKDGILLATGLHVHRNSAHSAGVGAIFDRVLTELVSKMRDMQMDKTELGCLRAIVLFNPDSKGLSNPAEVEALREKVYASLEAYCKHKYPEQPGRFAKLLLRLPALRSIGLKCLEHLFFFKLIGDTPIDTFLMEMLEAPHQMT
Source text: (§1) A holoreceptor transactivation assay and a ligand binding assay which measure the antagonist/agonist like activity of the compounds of the invention, or their ability to bind to the several retinoid receptor subtypes, respectively, are described in published PCT Application No. WO WO93/11755 (particularly on pages 30-33 and 37-41) published on Jun. 24, 1993, the specification of which is also incorporated herein by reference. A detailed experimental procedure for holoreceptor transactivations has been described by Heyman et al. Cell 68, 397-406, (1992); Allegretto et al. J. Biol. Chem. 268, 26625-26633, and Mangelsdorf et al. The Retinoids: Biology, Chemistry and Medicine, pp 319-349, Raven Press Ltd., New York, which are expressly incorporated herein by reference. The results obtained in this assay are expressed in EC50 numbers, as they are also in the chimeric receptor transactivation assay. The results of ligand binding assay are expressed in Kd numbers. (See Cheng et al. Biochemical Pharmacology Vol. 22 pp 3099-3108, expressly incorporated herein by reference.)
(§2) Table 1 discloses the activity of certain exemplary compounds of the invention in the above-described holoreceptor transactivation assay and a ligand binding assays. Particularly, the transactivation data pertaining to RAR receptors were obtained in the chimeric assay, and the data pertaining to transactivation of RXR receptors were obtained in the holoreceptor transactivation assay.

RXRβ [2] = target: T2, RXRβ (Homo sapiens, UniProt P28702); experiment: holoreceptor transactivation assay, RXRβ; format: cell-based; settings: for EC50: read-out: EC50 (nM) RXR β
T2 construct: expressed in transfected cells
T2 sequence (P28702 1-533): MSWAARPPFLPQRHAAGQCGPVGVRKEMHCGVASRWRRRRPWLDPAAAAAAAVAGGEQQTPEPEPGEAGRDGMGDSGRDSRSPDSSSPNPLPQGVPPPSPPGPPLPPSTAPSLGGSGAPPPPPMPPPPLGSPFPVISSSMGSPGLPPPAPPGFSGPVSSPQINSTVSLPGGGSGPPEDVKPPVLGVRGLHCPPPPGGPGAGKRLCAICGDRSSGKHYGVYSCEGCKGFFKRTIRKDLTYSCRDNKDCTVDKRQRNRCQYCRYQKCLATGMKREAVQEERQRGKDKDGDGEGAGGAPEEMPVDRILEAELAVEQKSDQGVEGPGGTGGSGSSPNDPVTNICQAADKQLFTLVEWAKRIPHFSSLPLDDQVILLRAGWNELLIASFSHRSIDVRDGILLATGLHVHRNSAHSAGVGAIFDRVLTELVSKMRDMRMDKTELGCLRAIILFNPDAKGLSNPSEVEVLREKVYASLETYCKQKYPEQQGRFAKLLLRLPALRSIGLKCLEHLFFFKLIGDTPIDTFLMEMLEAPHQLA
Source text: as §1, §2

RXRβ [3] = target: T2, RXRβ; experiment: ligand binding assay, RXRβ; settings: read-out: Kd (nM) RXR β
Source text: as §1, §2

RXRγ [4] = target: T3, RXRγ (Homo sapiens, UniProt P48443); experiment: holoreceptor transactivation assay, RXRγ; format: cell-based; settings: for EC50: read-out: EC50 (nM) RXR γ
T3 construct: expressed in transfected cells
T3 sequence (P48443 1-463): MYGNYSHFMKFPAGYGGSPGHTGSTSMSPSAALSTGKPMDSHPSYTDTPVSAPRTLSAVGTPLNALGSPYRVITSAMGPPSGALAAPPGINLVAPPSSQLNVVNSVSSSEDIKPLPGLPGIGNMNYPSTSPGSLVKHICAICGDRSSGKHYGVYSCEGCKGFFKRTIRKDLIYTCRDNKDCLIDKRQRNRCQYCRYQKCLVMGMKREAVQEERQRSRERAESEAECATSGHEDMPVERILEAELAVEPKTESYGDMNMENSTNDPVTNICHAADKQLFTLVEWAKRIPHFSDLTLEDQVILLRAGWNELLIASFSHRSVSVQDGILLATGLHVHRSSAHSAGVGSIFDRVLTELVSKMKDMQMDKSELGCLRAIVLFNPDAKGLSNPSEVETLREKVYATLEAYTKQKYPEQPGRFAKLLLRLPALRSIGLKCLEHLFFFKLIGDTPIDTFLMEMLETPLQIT
Source text: as §1, §2

RXRγ [5] = target: T3, RXRγ; experiment: ligand binding assay, RXRγ; settings: read-out: Kd (nM) RXR γ
Source text: as §1, §2

RXRα [6] = target: T1, RXRα; experiment: holoreceptor transactivation assay, RXRα; format: cell-based; settings: for EC50: read-out: EC50 (nM) RXR α
Source text: as §1, §2

| SMILES | Kd (RXRα [1]) [nM] | % Eff RXR β (RXRβ [2]) [%] | EC50 (RXRβ [2]) [nM] | Kd (RXRβ [3]) [nM] | % Eff RXR γ (RXRγ [4]) [%] | EC50 (RXRγ [4]) [nM] | Kd (RXRγ [5]) [nM] | % Eff RXR α (RXRα [6]) [%] | EC50 (RXRα [6]) [nM] |
| --- | --- | --- | --- | --- | --- | --- | --- | --- | --- |
| CCc1oc2ccc([C@@]3(C)C[C@H]3/C=C/C(C)=C/C(=O)O)cc2c1C(C)(C)C [Compound 12, 3-Methyl-6(S),7(S)-methano-7-(3-t-butyl-2-ethyl-benzofur-5-yl)-octa-2(E),4(E)-dienoic acid] | 11 | 150 | 17 | 20 | 131 | 2.9 | 40 | 144 | 1.5 |
| CCc1oc2ccc([C@@]3(C)C[C@H]3/C=C/C(C)=C/C(=O)O)cc2c1CC [Compound 20, 3-Methyl-6(S),7(S)-methano-7-(2,3-di-ethyl-benzofur-5-yl)-octa-2(E),4(E)-dienoic acid] | 71 | 90 | 44 | 288 | 90 | 12 | 256 | 130 | 6 |
| CCc1oc2ccc([C@@]3(C)C[C@H]3/C=C/C(C)=C/C(=O)O)cc2c1C(C)C [Compound 28, 3-Methyl-6(S),7(S)-methano-7-(2-ethyl-3-iso-propyl-benzofur-5-yl)-octa-2(E),4(E)-dienoic acid] | 6.8 | 116 | 4.3 | 17 | 110 | 0.8 | 48 | 102 | 0.7 |
| CCCCCc1oc2ccc([C@@]3(C)C[C@H]3/C=C/C(C)=C/C(=O)O)cc2c1C(C)(C)C [Compound 38, 3-Methyl-6(S),7(S)-methano-7-(3-t-butyl-2-n-pentyl-benzofur-5-yl)-octa-2(E),4(E)-dienoic acid] | 19.5 | 96 | 9.3 | 98 | 101 | 2.6 | > 1000 | 100 | 2.2 |
